According to patent US20220395511A1, “COMPOSITIONS AND METHODS FOR INCREASING CELL SURFACE OXYTOCIN RECEPTOR (OXTR)” (Washington University, priority 2021, published 2022):
Entries after “also recorded” stand apart in the source; their conditions may differ. Like-named read-outs stand apart in the source and are kept apart here.

Tests used:
[1] = molecular target: T1, WT OXTR endogenously expressed in hTERT-HM cells (Homo sapiens, UniProt P30559); assay: Quantitative flow cytometry of cell surface HA-OXTR in hTERT-HM cells; format: cell-based; conditions: for decrease of baseline cell surface OXTR abundance: cycloheximide 25 μg/mL, brefeldin A 5 μg/mL
T1 construct: hTERT-immortalized human myometrial (hTERT-HM) cells, which endogenously express WT OXTR; endogenous in cells; host or cells: hTERT-HM (genome-edited: HA knock-in at the OXTR locus)
T1 sequence (P30559 1-389): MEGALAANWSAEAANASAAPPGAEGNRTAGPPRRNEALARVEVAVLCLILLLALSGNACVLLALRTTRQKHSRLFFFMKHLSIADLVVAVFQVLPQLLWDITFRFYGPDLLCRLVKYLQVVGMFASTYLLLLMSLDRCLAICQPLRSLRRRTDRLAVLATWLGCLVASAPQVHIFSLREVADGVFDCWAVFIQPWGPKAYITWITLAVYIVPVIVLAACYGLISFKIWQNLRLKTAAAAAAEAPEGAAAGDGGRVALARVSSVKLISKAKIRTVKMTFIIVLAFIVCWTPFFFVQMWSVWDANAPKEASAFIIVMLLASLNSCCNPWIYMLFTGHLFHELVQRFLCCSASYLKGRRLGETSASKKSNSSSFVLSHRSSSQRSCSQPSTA
Procedure: These experiments were performed in the hTERT-immortalized human myometrial cell line, which was modified to introduce an N-terminal HA tag upstream of OXTR. […] OXTR was quantified by performing flow cytometry with a fluorescent antibody against HA. TCOT=TC-OT 39 ((2S)—N-[[4-[(4,10-dihydro-1-methylpyrazolo[3,4-b][1,5]benzodiazepin-5(1H)-yl)carbonyl]-2-methylphenyl]methyl]-2-[(hexahydro-4-methyl-1H-1,4-diazepin-1-yl)thioxomethyl]-1-pyrrolidinecarboxamide), partial OXTR agonist. CON=conivaptan (N-[4-(2-methyl-4,5-dihydro-3H-imidazo[4,5-d][1]benzazepine-6-carbonyl)phenyl]-2-phenylbenzamide; also known as YM087), vasopressin inhibitor. TASP=TASP 0390325 (2-(3-Chloro-4-fluorophenyl)-N-(1-methylethyl)-6-[3-(4-morpholinyl)propoxy]-4-oxo-pyrido[2,3-d]pyrimidine-3(4H)-acetamide hydrochloride), vasopressin inhibitor. WAY=WAY 267464 (4-(3,5-Dihydroxybenzyl)-N-(2-methyl-4-[(1-methyl-4,10-dihydropyrazolo[3,4-b][1,5]benzodiazepin-5(1H)-yl)carbonyl]benzyl)piperazine-1-carboxamide), OXTR agonist. TOL=tolvaptan (N-(4-{[(5R)-7-Chloro-5-hydroxy-2,3,4,5-tetrahydro-1H-1-benzazepin-1-yl]carbonyl}-3-methylphenyl)-2-methylbenzamide; also known as OPC41061), vasopressin inhibitor. OPC=OPC 21268 (N-[3-[4-[[4-(3,4-dihydro-2-oxo-1(2H)-quinolinyl)-1-piperidinyl]carbonyl]phenoxy]propyl]-acetamide), vasopressin inhibitor. SSR=SSR 149415 ((2S,4R)-1-[(3R)-5-Chloro-1-[(2,4-dimethoxyphenyl)sulfonyl]-2,3-dihydro-3-(2-methoxyphenyl)-2-oxo-1H-indol-3-yl]-4-hydroxy-N,N-dimethyl-2-pyrrolidinecarboxamide), vasopressin inhibitor. SR=SR49059 ((2S)-1-[[(2R,3S)-5-Chloro-3-(2-chlorophenyl)-1-[(3,4-dimethoxyphenyl)sulfonyl]-2,3-dihydro-3-hydroxy-1H-indol-2-yl]carbonyl]-2-pyrrolidinecarboxamide), vasopressin inhibitor. L371=L371,257 (1-[1-[4-(1-acetylpiperidin-4-yl)oxy-2-methoxybenzoyl]piperidin-4-yl]-4H-3,1-benzoxazin-2-one), OXTR antagonist.
Because specific antibodies to OXTR are not commercially available, CRISPR-Cas9 was used to introduce an HA tag at the N-terminus of OXTR in the hTERT-HM cell line. […]
To determine the mechanism of action of SR49059 and L371,257, hTERT-HM cells were treated for 12 h with cycloheximide (25 μg/mL), which inhibits protein translation, and brefeldin A (5 μg/mL), which blocks protein transport from the endoplasmic reticulum to the Golgi.
The Genome Engineering and iPSC Center at Washington University in St Louis used CRISPR-Cas9 to introduce an HA tag at the N-terminus of the OXTR gene in hTERT-HM cells. After drug incubation, cells were detached with TrypLE Express (Thermo Fisher) before flow cytometry.

WT OXTR = molecular target: T2, WT OXTR (Homo sapiens, UniProt P30559); assay: Quantitative flow cytometry of cell surface WT HA-OXTR-GFP in transfected HEK293T cells; format: cell-based; conditions: for more surface WT OXTR than vehicle-treated cells: HEK293T, WT HA-OXTR-GFP, 10 μM, 16 h
T2 construct: expressed in transfected cells; host or cells: HEK293T (transient)
T2 sequence (P30559 1-389): T1 sequence (P30559 1-389)

[2] = molecular target: T3, WT OXTR in hTERT-HM cells (Homo sapiens, UniProt P30559); assay: Oxytocin-induced IP1 production in hTERT-HM cells; format: cell-based; conditions: for increase of maximal IP1 production: hTERT-HM, N=5 (FIG. 8D)
T3 construct: hTERT-immortalized human myometrial (hTERT-HM) cells, which endogenously express WT OXTR; endogenous in cells; host or cells: hTERT-HM
T3 sequence (P30559 1-389): T1 sequence (P30559 1-389)

OXTR = molecular target: T4, OXTR (Homo sapiens, UniProt P30559); conditions: in words, cited from earlier work
T4 sequence (P30559 1-389): T1 sequence (P30559 1-389)

[3] = hTERT-HM, HA-OXTR, 10 μM, 16 h (overnight)

Cc1cc(C(=O)N2Cc3cnn(C)c3Nc3ccccc32)ccc1CNC(=O)N1CCN(Cc2cc(O)cc(O)c2)CC1 [WAY26746, 4-(3,5-Dihydroxybenzyl)-N-(2-methyl-4-[(1-methyl-4,10-dihydropyrazolo[3,4-b][1,5]benzodiazepin-5(1H)-yl)carbonyl]benzyl)piperazine-1-carboxamide]
effect on cell surface OXTR in hTERT-HM cells [1, 3]: no effect

C[C@@H]1C[C@@H]([C@H](O)CC2CC(=O)NC(=O)C2)C(=O)[C@@H](C)C1 [Cycloheximide]
decrease of baseline cell surface OXTR abundance ([1]; hTERT-HM, 12 h): 18%

COc1cc(OC2CCN(C(C)=O)CC2)ccc1C(=O)N1CCC(N2C(=O)OCc3ccccc32)CC1 [L371,257, 1-[1-[4-(1-acetylpiperidin-4-yl)oxy-2-methoxybenzoyl]piperidin-4-yl]-4H-3,1-benzoxazin-2-one]
more surface WT OXTR than vehicle-treated cells (WT OXTR): 170%
effect on cell surface OXTR in cells also treated with brefeldin A [1]: no effect
effect on cell surface OXTR in hTERT-HM cells [1]: greatest effect of all the candidate compounds
increase of cell surface OXTR abundance [1]: 2.9 fold
increase of surface OXTR in cells treated with cycloheximide [1]: 20%
increase of surface OXTR localization after 4 h of treatment [1]: more than twofold
surface OXTR localization at 48 h of treatment [1]: remained high
treatment time at which surface OXTR reached a plateau [1]: 6 h
increase of maximal IP1 production [2]: 35%

Cc1cc(C(=O)N2Cc3cnn(C)c3Nc3ccccc32)ccc1CNC(=O)N1CCC[C@H]1C(=S)N1CCCN(C)CC1 [TCOT39, (2S)-N-[[4-[(4,10-dihydro-1-methylpyrazolo[3,4-b][1,5]benzodiazepin-5(1H)-yl)carbonyl]-2-methylphenyl]methyl]-2-[(hexahydro-4-methyl-1H-1,4-diazepin-1-yl)thioxomethyl]-1-pyrrolidinecarboxamide]
effect on cell surface OXTR in hTERT-HM cells [1, 3]: decreased

C[C@H]1CCC/C=C/[C@@H]2C[C@H](O)C[C@H]2[C@H](O)/C=C/C(=O)O1 [brefeldin A]
decrease of baseline cell surface OXTR abundance ([1]; hTERT-HM, 12 h): 62%

Cc1ccccc1C(=O)Nc1ccc(C(=O)N2CCC[C@@H](O)c3cc(Cl)ccc32)c(C)c1 [OPC41061, N-(4-{[(5R)-7-Chloro-5-hydroxy-2,3,4,5-tetrahydro-1H-1-benzazepin-1-yl]carbonyl}-3-methylphenyl)-2-methylbenzamide]
effect on cell surface OXTR in hTERT-HM cells [1, 3]: increased

Cc1nc2c([nH]1)CCN(C(=O)c1ccc(NC(=O)c3ccccc3-c3ccccc3)cc1)c1ccccc1-2 [YM087, N-[4-(2-methyl-4,5-dihydro-3H-imidazo[4,5-d][1]benzazepine-6-carbonyl)phenyl]-2-phenylbenzamide]
effect on cell surface OXTR in hTERT-HM cells [1, 3]: significantly decreased
reported OXTR affinity (OXTR): medium OXTR affinity

COc1ccc(S(=O)(=O)N2C(=O)[C@@](c3ccccc3OC)(N3C[C@H](O)C[C@H]3C(=O)N(C)C)c3cc(Cl)ccc32)c(OC)c1 [SSR149415, (2S,4R)-1-[(3R)-5-Chloro-1-[(2,4-dimethoxyphenyl)sulfonyl]-2,3-dihydro-3-(2-methoxyphenyl)-2-oxo-1H-indol-3-yl]-4-hydroxy-N,N-dimethyl-2-pyrrolidinecarboxamide]
reported OXTR affinity (OXTR): medium OXTR affinity

COc1ccc(S(=O)(=O)N2c3ccc(Cl)cc3[C@](O)(c3ccccc3Cl)[C@@H]2C(=O)N2CCC[C@H]2C(N)=O)cc1OC [SR49059, (2S)-1-[[(2R,3S)-5-Chloro-3-(2-chlorophenyl)-1-[(3,4-dimethoxyphenyl)sulfonyl]-2,3-dihydro-3-hydroxy-1H-indol-2-yl]carbonyl]-2-pyrrolidinecarboxamide]
effect on cell surface WT OXTR (WT OXTR; HEK293T transfected with WT OXTR): robustly increased
more surface WT OXTR than vehicle-treated cells (WT OXTR): 170%
treatment time at which surface OXTR reached a plateau ([1]; hTERT-HM time course): 6 h
effect on cell surface OXTR in hTERT-HM cells [1, 3]: robustly increased
increase of cell surface OXTR abundance ([1]; hTERT-HM, 10 μM, 16 h): 2.3 fold
increase of surface OXTR localization after 4 h of treatment ([1]; hTERT-HM, 4 h): more than twofold
effect on cell surface OXTR in cells also treated with cycloheximide ([1]; hTERT-HM, 12 h, 10 μM with cycloheximide 25 μg/mL): no effect
effect on cell surface OXTR in cells also treated with brefeldin A ([1]; hTERT-HM, 12 h, with brefeldin A 5 μg/mL): no effect
surface OXTR localization at 48 h of treatment ([1]; hTERT-HM, 48 h): remained high
reported OXTR affinity (OXTR): medium OXTR affinity
increase of maximal IP1 production [2]: 37%
increase of maximal oxytocin response (IP1 accumulation) ([2]; human myometrial (hTERT-HM) cells, 10 μM overnight, N=3 (FIG. 2)): 12%

CC(=O)NCCCOc1ccc(C(=O)N2CCC(N3C(=O)CCc4ccccc43)CC2)cc1 [OPC21268, N-[3-[4-[[4-(3,4-dihydro-2-oxo-1(2H)-quinolinyl)-1-piperidinyl]carbonyl]phenoxy]propyl]-acetamide]
reported OXTR affinity (OXTR): medium OXTR affinity

CC(C)NC(=O)Cn1c(-c2ccc(F)c(Cl)c2)nc2ncc(OCCCN3CCOCC3)cc2c1=O.Cl [TASP0390325, 2-(3-Chloro-4-fluorophenyl)-N-(1-methylethyl)-6-[3-(4-morpholinyl)propoxy]-4-oxo-pyrido[2,3-d]pyrimidine-3(4H)-acetamide hydrochloride]
reported OXTR affinity (OXTR; hydrochloride): extremely low affinity; also recorded: antagonist; low
